{
  "source": "patent US20180066005A1",
  "about": "“TRANS-RESVERATROL POLYSACCHARIDE, METHOD OF PRODUCING THE SAME, AND COMPOSITION COMPRISING THE SAME” (FAITH CO., LTD., priority 2013, published 2018)",
  "key": {"3T3 mouse fibroblasts": {"test_system": "3T3 mouse fibroblasts", "assay": "Rescue activity from cell death induced by hydrogen peroxide", "format": "cell-based", "details": "10 μM for 3 hours, then hydrogen peroxide 15 μM, culture for 12 hours (FIG. 10)", "description": "Subsequently, the cultured cells were fixed with 4% paraformaldehyde and stained with Hoechst. Cells in which aggregation in the cell nucleus was observed were determined to be cell death, and the percentage of cell death (vertical axis in the graph) was calculated.\nAn experiment was conducted to confirm the trans-resveratrol polysaccharide's rescue activity from cell death. RSV, 4M-RSV, and 3P-RSV were each added to a culture medium of 3T3 mouse fibroblasts so that the final concentration was 10 μM, and the fibroblasts were cultured with 5% carbon dioxide at 37° C. for 3 hours. Subsequently, hydrogen peroxide was added to the culture medium so that the final concentration was 15 μM, thereby inducing cell death.\nAfter culture for 12 hours, cell death was determined in the same manner as in Example 1, and the percentage of cell death was calculated."}, "[1]": {"test_system": "normal human three-dimensional epithelial tissue model MelanoDerm", "assay": "Whitening effect: reduction in black areas in epithelial tissue models (MelanoDerm)", "format": "cell-based", "description": "An experiment was conducted to confirm the effect of suppressing the expression of NFκB, which is a transcription factor that induces inflammation. Epithelial tissue models were produced using a normal human three-dimensional epithelial tissue model production kit MelanoDerm (MEL-300; Kurabo). RSV was added to the culture media so that the final concentration was 0 μM (Ctrl), 30 μM, 50 μM, and 100 μM, and the tissue models were cultured according to the manual of the kit. RNA in the skin tissue models was collected three weeks after the addition of RSV, and subjected to quantitative PCR analysis to measure the expression level of NFκB. […] Epithelial tissue models were produced using the above kit. RSV was added to the culture media so that the final concentration was 0 μM (Ctrl), 30 μM, 50 μM, and 100 μM, and the tissue models were cultured according to the manual of the kit. Photographic images of the epithelial tissue models were taken three weeks after the addition of RSV. The degree of reduction in black areas due to the addition of RSV was calculated using ImageJ image-analysis software, and the results were graphed. […] Epithelial tissue models were produced in the same manner as in Example 5. RSV, 4 M-RSV, and 3P-RSV were each added so that the final concentration was 50 μM, and the skin tissue models were observed."}, "NFκB": {"test_system": "NFκB", "assay": "Suppression of NFκB expression in epithelial tissue models (quantitative PCR)", "format": "cell-based, human", "details": "30 μM, 50 μM and 100 μM, three weeks after addition (FIG. 11)", "description": "An experiment was conducted to confirm the effect of suppressing the expression of NFκB, which is a transcription factor that induces inflammation. Epithelial tissue models were produced using a normal human three-dimensional epithelial tissue model production kit MelanoDerm (MEL-300; Kurabo). RSV was added to the culture media so that the final concentration was 0 μM (Ctrl), 30 μM, 50 μM, and 100 μM, and the tissue models were cultured according to the manual of the kit. RNA in the skin tissue models was collected three weeks after the addition of RSV, and subjected to quantitative PCR analysis to measure the expression level of NFκB."}, "[2]": {"assay": "Solubility in water at room temperature", "format": "physicochemical", "details": "for solubility in distilled water: allowed to stand at room temperature, turbid or transparent tube (FIG. 7)", "description": "FIG. 7 is a photographic image showing trans-resveratrol-3-O-β-D-monoglucoside contained in the fraction showing a single peak detected in FIG. 1 (A), and trans-resveratrol-3-O-β-D-diglucoside contained in the fraction (a) in FIG. 1 (B), after they were dissolved in distilled water and allowed to stand at room temperature."}},
  "data": [
    {"compound": "OCC1OC(Oc2cc(O)cc(/C=C/c3ccc(OC4OC(CO)C(OC5OC(CO)C(O)C(O)C5O)C(O)C4O)cc3)c2)C(O)C(O)C1O", "note": "[4M-RSV, trans-resveratrol-O-β-D-3-monoglucoside-4′-diglycoside]", "values": [
      {"measurement": "rescue activity from cell death induced by hydrogen peroxide (percentage of cell death)", "setting": "3T3 mouse fibroblasts", "result": "cell death almost equal to that of the case in which hydrogen peroxide was not added (Ctrl)"},
      {"measurement": "degree of reduction in black areas per molecular unit of RSV (whitening effect)", "setting": "[1]; 50 μM (FIG. 13)", "result": "significantly excellent whitening effect"}
    ]},
    {"compound": "Oc1ccc(/C=C/c2cc(O)cc(O)c2)cc1", "note": "[RSV, Trans-resveratrol]", "values": [
      {"measurement": "expression level of NFκB", "setting": "NFκB", "result": "suppressed the expression level of NFκB in the epithelial tissue models in a concentration-dependent manner"},
      {"measurement": "reduction in black areas (whitening effect)", "setting": "[1]; 30 μM, 50 μM and 100 μM, three weeks after addition, ImageJ (FIG. 12)", "result": "reduced black areas in the epithelial tissue models in a concentration-dependent manner"}
    ]},
    {"compound": "OCC1OC(OC2C(CO)OC(Oc3cc(O)cc(/C=C/c4ccc(O)cc4)c3)C(O)C2O)C(O)C(O)C1O", "note": "[trans-resveratrol-3-O-β-D-diglucoside, trans-Resveratrol-3-O-β-D-diglucoside]", "values": [
      {"measurement": "solubility in distilled water", "setting": "[2]", "result": "easily dissolved in distilled water at room temperature"},
      {"measurement": "water solubility at ordinary temperature", "setting": "[2]; ordinary temperature, concluded from ethyl acetate/water partition and HPLC fractions", "result": "could acquire water solubility at ordinary temperature"}
    ]},
    {"compound": "OC[C@H]1O[C@@H](Oc2cc(O)cc(/C=C/c3ccc(O)cc3)c2)[C@H](O)[C@@H](O)[C@@H]1O", "note": "[trans-resveratrol-3-O-β-D-monoglucoside, trans-Resveratrol-3-O-β-D-glucopyranoside, reference compound]", "values": [
      {"measurement": "solubility in distilled water", "setting": "[2]", "result": "not dissolved in distilled water at room temperature"}
    ]}
  ]
}
